Three molecules from PMC6914789 (Scientific Reports, 2019) can be followed below.

Test [1] concerns the target T1, Sirt6 (Homo sapiens, UniProt Q8N6T7).
T1 construct: Sirt6(13–308) for crystals; Sirt6(1-355) for activity
The test is described as follows: crystal structure at […] Å; MS deacetylation assay (activation at […]). The class given is binding.

For another test, the target named is T2, Sirt3 (Homo sapiens, UniProt Q9NTG7).
T2 construct: residues 118–399
T2 sequence (Q9NTG7 118-399): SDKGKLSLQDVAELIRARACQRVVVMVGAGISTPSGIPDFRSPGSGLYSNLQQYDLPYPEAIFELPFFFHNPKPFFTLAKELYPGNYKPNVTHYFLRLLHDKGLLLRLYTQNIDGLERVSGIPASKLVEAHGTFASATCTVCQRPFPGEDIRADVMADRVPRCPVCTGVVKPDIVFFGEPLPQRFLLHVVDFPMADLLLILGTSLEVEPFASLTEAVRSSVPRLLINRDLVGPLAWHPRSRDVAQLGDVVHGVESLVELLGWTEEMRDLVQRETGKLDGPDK
As to the kind of experiment: MS deacetylation assay with acetyl-ACS2 peptide. Type of test: biochemical.

Another test has as its target T3, Sirt5 (Homo sapiens, UniProt Q9NXA8).
T3 construct: residues 34–302
T3 sequence (Q9NXA8 34-302): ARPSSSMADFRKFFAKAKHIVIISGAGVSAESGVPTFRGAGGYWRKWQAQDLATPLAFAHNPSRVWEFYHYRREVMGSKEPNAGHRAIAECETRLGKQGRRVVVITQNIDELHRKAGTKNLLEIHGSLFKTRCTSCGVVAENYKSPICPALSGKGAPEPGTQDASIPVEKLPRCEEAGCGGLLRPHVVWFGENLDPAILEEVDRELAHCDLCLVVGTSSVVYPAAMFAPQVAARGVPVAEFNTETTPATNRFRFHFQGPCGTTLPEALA
The test is described as follows: MS desuccinylation assay with succinyl-CPS1 peptide. The class given is biochemical.

Another test has as its target T4, Sirt1 (Homo sapiens, UniProt Q96EB6).
T4 construct: Full length human Sirt1
T4 sequence (Q96EB6 2-747): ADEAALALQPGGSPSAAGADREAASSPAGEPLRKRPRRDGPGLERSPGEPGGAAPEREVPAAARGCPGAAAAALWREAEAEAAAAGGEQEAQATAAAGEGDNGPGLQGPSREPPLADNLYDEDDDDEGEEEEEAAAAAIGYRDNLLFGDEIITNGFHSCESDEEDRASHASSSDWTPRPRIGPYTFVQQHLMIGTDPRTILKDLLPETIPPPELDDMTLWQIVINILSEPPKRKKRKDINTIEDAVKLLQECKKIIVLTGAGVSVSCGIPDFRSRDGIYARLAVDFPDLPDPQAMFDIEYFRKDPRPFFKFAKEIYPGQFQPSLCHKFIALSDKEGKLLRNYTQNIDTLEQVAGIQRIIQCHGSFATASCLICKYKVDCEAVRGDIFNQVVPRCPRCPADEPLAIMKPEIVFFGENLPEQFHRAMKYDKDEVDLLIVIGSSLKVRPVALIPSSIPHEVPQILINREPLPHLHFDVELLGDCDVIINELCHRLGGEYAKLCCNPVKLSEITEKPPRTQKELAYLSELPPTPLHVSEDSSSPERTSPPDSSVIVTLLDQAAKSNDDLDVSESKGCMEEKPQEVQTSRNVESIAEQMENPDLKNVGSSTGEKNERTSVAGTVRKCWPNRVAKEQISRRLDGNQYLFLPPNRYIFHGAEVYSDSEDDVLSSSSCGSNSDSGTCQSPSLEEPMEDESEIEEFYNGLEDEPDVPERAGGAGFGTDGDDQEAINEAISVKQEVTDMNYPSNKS
As to the kind of experiment: MS deacetylation assay with acetyl-p53 peptide. Type of test: biochemical.

Test [2] deals with T1, Sirt6. As to the kind of experiment: crystal structure ([…] Å in Table […]); MS deacetylation assay (activation). Type of test: binding.

Each structure is given as a SMILES string.

T1 sequence (Q8N6T7 whole entry): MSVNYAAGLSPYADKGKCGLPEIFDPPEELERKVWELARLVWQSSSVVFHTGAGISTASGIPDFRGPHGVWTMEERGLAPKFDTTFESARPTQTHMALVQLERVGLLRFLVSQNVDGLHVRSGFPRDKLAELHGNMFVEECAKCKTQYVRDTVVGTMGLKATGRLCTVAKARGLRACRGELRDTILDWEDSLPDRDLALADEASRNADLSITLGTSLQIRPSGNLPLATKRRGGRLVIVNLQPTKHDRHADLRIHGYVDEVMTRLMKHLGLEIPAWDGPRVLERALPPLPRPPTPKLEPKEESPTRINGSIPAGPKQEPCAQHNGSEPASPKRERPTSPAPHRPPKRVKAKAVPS

Regarding `Oc1cc(O)c2cc(O)c(-c3ccc(O)c(O)c3)[o+]c2c1` [compound 6, cyanidin], the “crystal structure at 2.10 Å; MS deacetylation assay (activation at 20-80 μM)” value at Sirt6 [1] is on record as “we solved a crystal structure of a Sirt6/ADP-ribose/cyanidin complex”. With `O=c1c(O)c(-c2ccc(O)c(O)c2)oc2cc(O)cc(O)c12` [compound 1, quercetin], on Sirt3, the “MS deacetylation assay with acetyl-ACS2 peptide” value was “Quercetin caused a concentration-dependent inhibition of all Sirtuin isoforms except for Sirt6”. For the same molecule, the “MS desuccinylation assay with succinyl-CPS1 peptide” value on Sirt5 is recorded as “Quercetin caused a concentration-dependent inhibition of all Sirtuin isoforms except for Sirt6”. On Sirt1, the “MS deacetylation assay with acetyl-p53 peptide” value is on record as “Quercetin caused a concentration-dependent inhibition of all Sirtuin isoforms except for Sirt6”. On to `O=c1c(O[C@@H]2O[C@H](CO)[C@@H](O)[C@H](O)[C@H]2O)c(-c2ccc(O)c(O)c2)oc2cc(O)cc(O)c12` [compound 4, isoquercetin], for which the “crystal structure (1.90 Å in Table 1); MS deacetylation assay (activation)” value at Sirt6 [2] was “we determined a crystal structure of a Sirt6/ADP-ribose/isoquercetin complex”.
